From PubChem BioAssay (NCI) come the findings set out here.

Among the test systems are MOLT-4 leukemia; OVCAR-5 ovarian; SK-OV-3 ovarian; HT29 colon; HOP-92 NSCLC; U251 CNS; ACHN renal; SR leukemia; M14 melanoma; LOX IMVI melanoma.
Common to all, as to assay: growth of human tumour cells (NCI), 48 h

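Step 1: Grow cells in 96-well plates. Step 2: Expose to compound for 48 hours at 5 concentrations. Step 3: Interpolate endpoints linearly; if unreached, use highest concentration. GI50 marks 50% less growth. The concentration for full growth arrest is given as TGI.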

For `COc1ccc(/C=C(/C)[N+](=O)[O-])cc1`, the TGI came to 5.34 µM with MOLT-4 leukemia; 9.47 µM with OVCAR-5 ovarian; 17.9 µM in the assay on SK-OV-3 ovarian; 11.9 µM with HT29 colon; 5.66 µM in the assay on HOP-92 NSCLC; 3.05 µM in the assay on U251 CNS. Also, the TGI with ACHN renal came to 3.97 µM; in the assay on SR leukemia it was 3.56 µM; in the assay on M14 melanoma it was 7.92 µM.
As for `CC(O)(CNS(=O)(=O)c1ccccc1)c1ccccc1` (centres undefined), the TGI in the assay with OVCAR-5 ovarian, with SK-OV-3 ovarian, in the assay on HT29 colon, in the assay on HOP-92 NSCLC, in the assay on U251 CNS and in the assay with ACHN renal was above 100 µM throughout. Besides, the TGI in the assay with LOX IMVI melanoma, with SR leukemia and in the assay with M14 melanoma was above 100 µM throughout.
For the compound `Cc1nc(Nc2ccccc2)sc1C(=O)NNc1ccc([N+](=O)[O-])cc1[N+](=O)[O-]`, the TGI in the assay with MOLT-4 leukemia is 69.7 µM; with OVCAR-5 ovarian, above 100 µM; in the assay with SK-OV-3 ovarian, above 100 µM; with HT29 colon it was above 100 µM; with U251 CNS it was above 100 µM; in the assay on ACHN renal, above 100 µM. The figures for the TGI in the assay with LOX IMVI melanoma, with SR leukemia and in the assay on M14 melanoma were 87.9 µM, 65.7 µM and above 100 µM, respectively.
On to `CCc1cccc(C(C)CC)c1NC(=O)C(=O)C(CC(=O)Nc1ccc(Cl)c(Cl)c1)C(=O)OC` (centres undefined), for which the TGI with MOLT-4 leukemia, in the assay with OVCAR-5 ovarian, with SK-OV-3 ovarian, in the assay on HT29 colon, with HOP-92 NSCLC and with U251 CNS was above 100 µM throughout. In addition, the values for the TGI in the assay with ACHN renal, in the assay with SR leukemia and in the assay with M14 melanoma were 69.8 µM, above 100 µM and above 100 µM, respectively.
As to `O=[N+]([O-])c1ccc(/C=C(/c2ccc([N+](=O)[O-])o2)S(=O)(=O)c2ccccc2)o1`, the TGI came to 33.9 µM with OVCAR-5 ovarian; 90.8 µM in the assay on SK-OV-3 ovarian; 13.6 µM in the assay on HT29 colon; 27.8 µM in the assay on HOP-92 NSCLC; 29.4 µM in the assay with U251 CNS; 8.69 µM in the assay with ACHN renal. The TGI in the assay with SR leukemia was determined as 2.6 µM; in the assay on M14 melanoma it was 25.5 µM.
`Nc1ccc2ccc(NS(=O)(=O)N3CCCCC3)cc2c1`: the GI50 in the assay with MOLT-4 leukemia was 0.524 µM; in the assay with SK-OV-3 ovarian, 0.498 µM; with HT29 colon, 0.4 µM; in the assay with HOP-92 NSCLC it was 0.532 µM; in the assay on U251 CNS, 0.392 µM; in the assay on ACHN renal it was 3.64 µM. Further, the GI50 in the assay with LOX IMVI melanoma is 1.03 µM; with SR leukemia it was 0.215 µM. Also, the TGI was above 100 µM with MOLT-4 leukemia; above 100 µM in the assay with OVCAR-5 ovarian; above 100 µM in the assay with HT29 colon; 73.1 µM in the assay with HOP-92 NSCLC; above 42 µM in the assay with U251 CNS; above 100 µM in the assay with ACHN renal. For the same compound, the TGI with LOX IMVI melanoma and with SR leukemia was above 100 µM in each case.
Take `Cn1c2ccccc2c(=O)c2c([N+](=O)[O-])ccc(NCCN)c21`: the TGI with MOLT-4 leukemia worked out at 7.95 µM; in the assay on OVCAR-5 ovarian, 26.9 µM; in the assay with SK-OV-3 ovarian, 29.4 µM; with HT29 colon it was 17.3 µM; with HOP-92 NSCLC it was 20.2 µM; with U251 CNS, 28.1 µM. The TGI was 19.7 µM with ACHN renal, above 100 µM in the assay on SR leukemia and 27.4 µM in the assay on M14 melanoma.
`Cc1cc(C)n(C(=O)c2nn(-c3ccc(Cl)cc3)cc2O)n1`: the GI50 is 4.98 µM with OVCAR-5 ovarian; 7.04 µM in the assay on SK-OV-3 ovarian; 32.9 µM in the assay with HT29 colon; 4.52 µM with HOP-92 NSCLC; 2.68 µM with U251 CNS; 3.77 µM in the assay on ACHN renal. The figures for the GI50 in the assay on LOX IMVI melanoma, in the assay on SR leukemia and in the assay with M14 melanoma were 3.94 µM, above 100 µM and 4.69 µM, respectively. The TGI in the assay on OVCAR-5 ovarian was above 100 µM; with SK-OV-3 ovarian, 66.1 µM; in the assay with HT29 colon, above 100 µM; in the assay with HOP-92 NSCLC it was above 100 µM; with U251 CNS, above 100 µM; in the assay on ACHN renal, above 100 µM. In addition, the TGI in the assay on LOX IMVI melanoma, with SR leukemia and in the assay on M14 melanoma was above 100 µM throughout.
For `COc1cc(NCC2COc3c(ccc(OC)c3OC)C2=O)c([N+](=O)[O-])cc1OC` (centres undefined), the TGI with MOLT-4 leukemia, in the assay with OVCAR-5 ovarian, in the assay on SK-OV-3 ovarian, in the assay with HT29 colon, in the assay on U251 CNS and in the assay on ACHN renal was above 100 µM in each case. The TGI with LOX IMVI melanoma, with SR leukemia and with M14 melanoma was above 100 µM each time.
Take `COc1ccc(/C=C/C(=O)c2cc3c(N)c(C(=O)Nc4ccccc4C)sc3nc2C)cc1`: the GI50 with MOLT-4 leukemia is 0.747 µM; in the assay with OVCAR-5 ovarian, 1.39 µM; with SK-OV-3 ovarian, 0.605 µM; with HT29 colon it was 0.487 µM; with HOP-92 NSCLC, 0.6 µM; with U251 CNS it was 1.4 µM. Besides, the GI50 was 0.36 µM with ACHN renal, 0.768 µM with LOX IMVI melanoma and 0.593 µM in the assay with SR leukemia. In addition, the TGI in the assay on MOLT-4 leukemia is above 50 µM; in the assay on OVCAR-5 ovarian it was above 50 µM; in the assay on SK-OV-3 ovarian, above 50 µM; with HT29 colon, above 50 µM; with HOP-92 NSCLC it was 32.3 µM; with U251 CNS, above 50 µM. The TGI was above 50 µM with ACHN renal, 5.21 µM in the assay on LOX IMVI melanoma and above 50 µM with SR leukemia.
On to `CCN(CC)CCOc1ccc2c(c1)C(=O)c1cc(OCCN(CC)CC)ccc1-2`, for which the GI50 was 5.27 µM in the assay on MOLT-4 leukemia; 35.6 µM with OVCAR-5 ovarian; 16.4 µM in the assay with SK-OV-3 ovarian; 2.58 µM with HT29 colon; 8.73 µM in the assay with U251 CNS; 5.92 µM with ACHN renal. The GI50 was 4.31 µM in the assay with LOX IMVI melanoma, 2.69 µM in the assay on SR leukemia and 14 µM with M14 melanoma. Besides, the TGI in the assay on MOLT-4 leukemia stood at 23.9 µM; in the assay on OVCAR-5 ovarian, 69.7 µM; in the assay with SK-OV-3 ovarian, 60.2 µM; with HT29 colon it was 10.4 µM; in the assay with U251 CNS, 31.3 µM; in the assay on ACHN renal, 46.5 µM. In addition, the TGI worked out at 16.7 µM in the assay on LOX IMVI melanoma, 6.59 µM in the assay on SR leukemia and 27.1 µM in the assay with M14 melanoma.
Turning to `Cc1nc2cc(Nc3nc(Nc4ccc(F)cc4)nc(N4CCN(C)CC4)n3)ccc2n1Cc1ccccc1`, the GI50 was 2.01 µM with MOLT-4 leukemia; 2 µM with OVCAR-5 ovarian; 1.9 µM in the assay with SK-OV-3 ovarian; 1.66 µM with HT29 colon; 1.35 µM in the assay with U251 CNS; 1.87 µM with ACHN renal. Further, the GI50 is 1.79 µM in the assay on LOX IMVI melanoma, 0.266 µM in the assay with SR leukemia and 1.97 µM with M14 melanoma. Further, the TGI worked out at 5.07 µM in the assay with MOLT-4 leukemia; 4.7 µM in the assay on OVCAR-5 ovarian; 3.78 µM with SK-OV-3 ovarian; 3.28 µM in the assay on HT29 colon; 2.64 µM with U251 CNS; 3.83 µM in the assay with ACHN renal. For the same compound, the TGI was determined as 3.41 µM in the assay on LOX IMVI melanoma, 0.806 µM in the assay with SR leukemia and 3.69 µM with M14 melanoma.
With `CO[C@@]12C[C@H]3[C@@H]([C@@H](O)[C@@H](OC(=O)/C=C/c4ccccc4)[C@@]4(O)C(C)(C)CCC[C@]34C)[C@@H](C)C1=CC(=O)O2`, the GI50 with MOLT-4 leukemia was above 100 µM; in the assay on OVCAR-5 ovarian, 17.1 µM; in the assay with HT29 colon, 4.6 µM; in the assay with U251 CNS, 3.29 µM; with ACHN renal, 4.16 µM; with LOX IMVI melanoma, 4.14 µM. Also, the GI50 in the assay on SR leukemia is above 100 µM; with M14 melanoma it was 18.2 µM. The TGI was above 100 µM in the assay on MOLT-4 leukemia; 48 µM in the assay with OVCAR-5 ovarian; 26.5 µM in the assay with HT29 colon; 13.7 µM in the assay with U251 CNS; 17.8 µM with ACHN renal; 15.6 µM with LOX IMVI melanoma. The TGI with SR leukemia and with M14 melanoma was above 100 µM each time.
As for `Cc1cc(C)c2c(SCc3ccc(Cl)cc3Cl)nc(N)nc2n1`, the TGI is above 100 µM with OVCAR-5 ovarian; above 100 µM in the assay with SK-OV-3 ovarian; above 100 µM in the assay on HT29 colon; 58.1 µM in the assay with HOP-92 NSCLC; above 100 µM in the assay on U251 CNS; above 100 µM with ACHN renal. The TGI with LOX IMVI melanoma, with SR leukemia and in the assay on M14 melanoma was above 100 µM in each case.
`O=C(Nc1ccccc1O)c1ccc(CNC(=O)c2sccc2Nc2ccnc(C(F)(F)F)c2)cc1`: the GI50 in the assay on MOLT-4 leukemia was 1.78 µM; in the assay on OVCAR-5 ovarian it was 5.9 µM; in the assay with SK-OV-3 ovarian, 10.6 µM; in the assay on HT29 colon, 6.21 µM; in the assay on U251 CNS, 5.44 µM; in the assay with ACHN renal, 4.95 µM. Besides, the results for the GI50 in the assay with LOX IMVI melanoma, in the assay on SR leukemia and in the assay with M14 melanoma were 5.51 µM, 4.19 µM and 7.87 µM, respectively. In addition, the TGI came out at 32.7 µM in the assay on MOLT-4 leukemia; 24.6 µM in the assay on OVCAR-5 ovarian; 37.3 µM in the assay on SK-OV-3 ovarian; 27 µM in the assay on HT29 colon; 20.8 µM in the assay with U251 CNS; 26.5 µM in the assay on ACHN renal. Further, the TGI was 18.9 µM with LOX IMVI melanoma, 61.4 µM with SR leukemia and 27.8 µM with M14 melanoma.
As to `OCC#Cc1ccccc1C#Cc1ccc(C#Cc2ccccc2C#CCO)s1`, the GI50 in the assay with OVCAR-5 ovarian was 22.1 µM; with SK-OV-3 ovarian, 15.9 µM; in the assay with HOP-92 NSCLC, 15.6 µM; in the assay on U251 CNS, 20.1 µM; in the assay with ACHN renal, 19.1 µM; in the assay with LOX IMVI melanoma, 20.4 µM. The figures for the GI50 in the assay on SR leukemia and in the assay on M14 melanoma were 36.9 µM and 23.3 µM, respectively. Further, the TGI amounted to 46.5 µM with OVCAR-5 ovarian; 34.4 µM in the assay with SK-OV-3 ovarian; 29.7 µM in the assay with HOP-92 NSCLC; 42.3 µM in the assay with U251 CNS; 43.3 µM in the assay on ACHN renal; 53.6 µM with LOX IMVI melanoma. The values for the TGI in the assay with SR leukemia and in the assay on M14 melanoma were above 100 µM and 49 µM, respectively.
